The results in this text go back to US20110287069A1, “SOLID ORAL FORMULATIONS OF A PYRIDOPYRIMIDINONE” (priority 2009, published 2011).

Data set [1] in a line: solubility and dissolution rate in aqueous media. Type of data set: physicochemical. The source says:
Even at a lower pH of 1, the dissolution rate of (R)-2-amino-7-[4-fluoro-2-(6-methoxy-pyridin-2-yl)-phenyl]-4-methyl-7,8-dihydro-6H-pyrido[4,3-d]pyrimidin-5-one is too slow. The present inventors have discovered that, when (R)-2-amino-7-[4-fluoro-2-(6-methoxy-pyridin-2-yl)-phenyl]-4-methyl-7,8-dihydro-6H-pyrido[4,3-d]pyrimidin-5-one is in the presence of a surfactant or an acid, the problems of a low solubility and a slow dissolution rate are overcome, resulting in (R)-2-amino-7-[4-fluoro-2-(6-methoxy-pyridin-2-yl)-phenyl]-4-methyl-7,8-dihydro-6H-pyrido[4,3-d]pyrimidin-5-one being soluble in aqueous solution and a dissolution rate that is unexpectedly faster and higher.

Data set [2] in a line: particle size by laser light diffraction. To be noted: micronized, screened through #25 screen. Type of data set: physicochemical. The text has this:
(R)-2-Amino-7-[4-fluoro-2-(6-methoxy-pyridin-2-yl)-phenyl]-4-methyl-7,8-dihydro-6H-pyrido[4,3-d]pyrimidin-5-one was micronized and screened through a #25 screen to a D average particle size of about 2 microns, with laser light diffraction yielding the following results: D(10) 0.78 μm, D(50) 2.18 μm, and D(90) 3.95 μm. The micronized (R)-2-amino-7-[4-fluoro-2-(6-methoxy-pyridin-2-yl)-phenyl]-4-methyl-7,8-dihydro-6H-pyrido[4,3-d]pyrimidin-5-one was then screened and added to a mixing bin along with the succinic acid and part A (50%) of the microcrystalline cellulose. The contents in the mixing bin were mixed for 150 revolutions, screened through a #40 screen and combine with a screened (#40 screen) mixture of AEROSIL 200, crospovidone, and the remaining other part B (50%) of the microcrystalline cellulose. This combination was mixed for 250 revolutions and screened through a #40 screen, and then combine with a first frozen and then milled mixture of vitamin E TPGS (screen no. 0063 using a Fitz mill) and magnesium stearate that was passed through at #30 mesh, to form a final combination, which was then blended together for 150 revolutions and encapsulated in a hard gelatin capsule using an encapsulation machine.

SMILES strings stand for the structures.

Regarding `COc1cccc(-c2cc(F)ccc2[C@H]2Cc3nc(N)nc(C)c3C(=O)N2)n1` [(R)-2-amino-7-[4-fluoro-2-(6-methoxy-pyridin-2-yl)-phenyl]-4-methyl-7,8-dihydro-6H-pyrido[4,3-d]pyrimidin-5-one], in data set [1] (aqueous media with a pH above 3), the solubility entry is reported as “very low solubility”. In addition, the dissolution rate result in data set [1] (pH of 1) is listed as “too slow”. In data set [2], the “D(10) particle size” value came to 0.78 μm, the “D(50) particle size” value is given as 2.18 μm and the “D(90) particle size” value was 3.95 μm.
